Measurements from patent US8481727B2, “Crystals of hydrochloride of pyridazin-3(2H)-one compound and process for production of same” (Nissan Chemical Industries, Ltd., priority 2008, dated 2013).

Experiment: Dissolution test, paddle method in Japanese Pharmacopoeia (Test Example 1)
Format: physicochemical
Details: about 10 mg in 900 ml test fluid, 50 rpm; dissolution test first fluid (pH 1.2) and second fluid (pH 6.8); sampling at 10, 30, 60 and 120 minutes; UV measurement; compared with A-form crystal
Protocol: About 10 mg of each of A-form crystal (Form A) obtained in Example 1, B-form crystal (Form B) obtained in Example 2 and H-form crystal (Form H) obtained in Example 3 was sampled, and a test was carried out at 50 rpm by the dissolution test method paddle method in Japanese Pharmacopoeia using 900 ml of a test fluid. Upon expiration of 10 minutes, 30 minutes, 60 minutes and 120 minutes after initiation of the test, sampling was carried out, and UV measurements were carried out, whereupon the dissolution ratios were calculated. Here, as the dissolution tester, NTR-VS6P manufactured by TOYAMA SANGYO CO., LTD. was used; as the spectrophotometer, UV-2400PC manufactured by Shimadzu Corporation was used; and as the test fluid, the dissolution test first fluid (pH 1.2) and second fluid (pH 6.8) were used. The results are shown in FIGS. 3 and 4 (the ordinate represents the dissolution ratio (%), and the abscissa represents the dissolution time (minutes)).

solubility (dissolution ratio): superior to A-form crystal in solubility
SMILES: Cl.O=c1[nH]nc(OCCCc2ccc(Cl)cc2)c(NCc2cccnc2)c1Br [B-form crystal, 4-bromo-6-(3-(4-chlorophenyl)propoxy)-5-(pyridin-3-ylmethylamino)pyridazin-3(2H)-one mono-hydrochloride]
